The record followed here is patent US20260256694A1, “Multilamellar Vesicle Drug Formulation” (Nanostar Pharmaceuticals Ltd., priority 2022, published 2026).

This series is described as follows: Pharmacokinetics after oral gavage in mice. The settings on record: 10 mg/kg.

Procedure: Concentrations of drugs and lipids were simultaneously quantified by a ACQUITY UPLC H-Class System (Waters, Milford, MA)^15. The mobile phase was composed of solvent A: 0.1% trifluoroacetic acid (TFA) in water and solvent B: 0.1% TFA in methanol. […] Concentrations of drugs and lipids were measured by integrating the peak area under the curve and compared to the standard curves. For plasma CQ quantitation, a Waters QDa mass spectrometry detector was used. Ionization was carried out at 250° C.
MLV-CQ drug formulation of the present invention or free CQ (dissolved in saline) was administered through oral gavage to mice at 10 mg CQ/kg (50 mg lipid/kg). […] Plasma was isolated by centrifugation at 4° C. for 10 min at 10,000 g. Forty-five L of plasma was mixed with 300 μL ethanol, vortexed for 30 s, placed on ice for 30 min, and centrifuged twice at 12,500 rpm for 5 min. The supernatant (280 μL) was collected, lyophilized, and reconstituted in 45 μL ethanol. Ten L of the sample was then injected into the UPLC to measure CQ concentration. Pharmacokinetics parameters and AUC were analyzed using PK solver^16 and GraphPad Prisim version 8.0 (GraphPad Software, San Diego, CA, USA), respectively.

For `CCN(CC)CCCC(C)Nc1ccnc2cc(Cl)ccc12` (stereo not shown) [CQ solution, chloroquine diphosphate], the “CQ in plasma at 24 h” value is listed as “completely eliminated”.
